From paper PMC3388080 (PLoS ONE, 2012)
Where two headings read alike, the source gives them in different places.

Tests used:
in vivo = details: rat, in vivo
Procedure: (§1) Pharmacokinetic analyses were performed at F. Hoffmann-La Roche as described in supporting Materials and Methods S1.
(§2) Cmax, maximum concentration; Tmax, time at which maximum concentration was observed; AUC, area under the plasma concentration vs. time curve; CL, clearance; Vss, volume of distribution at steady state; T1/2, terminal half-life; F, bioavailability; Fu, Fraction unbound. Plasma values are mean, n=2.

Stability in rat plasma = experiment: Stability in rat plasma
Procedure: as §1

in vitro [1] = details: human, plasma
Procedure: as §1

[2] = design: method as in PMID 19363060; details: 30 mg/kg, cited from earlier work
rHCRTR1 [3] = target: T1, rHCRTR1 (Rattus norvegicus, UniProt P56718); experiment: Inhibition of [^3H]almorexant binding to HEK293-rHCRTR1 membranes; details: read-out: Ki
T1 construct: expressed in transfected cells; host or cells: HEK293 (transient transfection, pCI-Neo vector), membrane preparation
T1 sequence (P56718 1-416): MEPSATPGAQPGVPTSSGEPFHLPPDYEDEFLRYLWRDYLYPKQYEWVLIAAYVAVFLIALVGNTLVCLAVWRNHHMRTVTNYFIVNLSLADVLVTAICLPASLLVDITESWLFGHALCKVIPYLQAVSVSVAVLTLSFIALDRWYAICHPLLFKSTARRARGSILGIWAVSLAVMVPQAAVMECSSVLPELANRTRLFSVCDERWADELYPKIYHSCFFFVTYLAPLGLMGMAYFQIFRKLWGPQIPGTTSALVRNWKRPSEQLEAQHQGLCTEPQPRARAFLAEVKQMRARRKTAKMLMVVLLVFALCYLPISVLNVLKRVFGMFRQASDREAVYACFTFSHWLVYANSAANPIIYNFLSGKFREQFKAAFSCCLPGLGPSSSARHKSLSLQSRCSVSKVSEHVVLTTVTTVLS
From the text: (§3) The rat cDNAs encoding HCRTR1 (Accession No. P56718) and HCRTR2 (Accession No. P56719) were subcloned into pCI-Neo expression vectors (Promega, Madison, WI) and used to transfect HEK293 cells (acquired commercially from ATCC-LGC, Molsheim, France) as previously described.

rHCRTR2 = target: T2, rHCRTR2 (Rattus norvegicus, UniProt P56719); experiment: Inhibition of [^3H]almorexant binding to HEK293-rHCRTR2 membranes
T2 construct: expressed in transfected cells; host or cells: HEK293 (transient transfection, pCI-Neo vector), membrane preparation
T2 sequence (P56719 whole entry): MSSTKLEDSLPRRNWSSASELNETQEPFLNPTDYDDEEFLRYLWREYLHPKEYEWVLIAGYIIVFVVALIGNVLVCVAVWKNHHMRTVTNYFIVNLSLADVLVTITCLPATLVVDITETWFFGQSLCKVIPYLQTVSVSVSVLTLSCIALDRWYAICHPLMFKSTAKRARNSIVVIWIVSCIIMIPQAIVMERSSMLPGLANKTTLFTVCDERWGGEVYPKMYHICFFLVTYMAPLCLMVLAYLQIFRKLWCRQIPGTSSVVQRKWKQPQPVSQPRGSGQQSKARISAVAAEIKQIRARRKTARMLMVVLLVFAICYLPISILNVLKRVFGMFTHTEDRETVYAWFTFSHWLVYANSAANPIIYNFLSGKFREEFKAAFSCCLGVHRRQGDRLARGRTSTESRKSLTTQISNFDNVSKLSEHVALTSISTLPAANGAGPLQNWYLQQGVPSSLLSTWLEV
From the text: as §3

[4] = Stability in human plasma
Procedure: as §1

HCRTR1 = target: T3, HCRTR1 (Rattus norvegicus, UniProt P56718); design: method as in PMID 19363060; details: subcutaneous 30 mg/kg; tenia tecta; cited from earlier work
T3 construct: from tissue; host or cells: coronal brain sections of male Sprague-Dawley rats (locus coeruleus)
T3 sequence (P56718 1-416): T1 sequence (P56718 1-416)

in vitro [5] = details: rat, plasma
Procedure: as §1, §2

rHCRTR1 [6] = target: T1, rHCRTR1; design: method as in PMID 14691055; details: cited from earlier work

AUC/Dose (in vivo; Wistar, iv): 7996.40 ng/h/mL | Tmax (in vivo; Wistar, iv): 0 h | Vd (in vivo; Wistar, iv): 0.2 L/kg | clearance (in vivo; Wistar, iv): 2.1 mL/min/kg | half-life (in vivo; Wistar, iv): 1.12 h | Cmax/Dose (in vivo; Wistar, iv, 12.1 mg/kg): 4738.30 ng/mL | AUC/Dose (in vivo; Wistar, po): 3455.70 ng/h/mL | Tmax (in vivo; Wistar, po): 2.67 h | bioavailability (in vivo; Wistar, po): 43.2% | half-life (in vivo; Wistar, po): 1.95 h | Cmax/Dose (in vivo; Wistar, po, 18.16 mg/kg): 704.8 ng/mL | Vss (in words) (in vivo): low | systemic plasma clearance (in words) (in vivo): low | oral bioavailability (in words) (in vivo; po): medium | stability in plasma (Stability in rat plasma; 1 h): 101% | stability in plasma (Stability in rat plasma; 4 h): 107% | fraction unbound (in vitro [1]): 0.003 | Ki (rHCRTR1 [3]): 45.7 ± 4.1 nM | Ki (rHCRTR2): 5370 ± 2200 nM | stability in plasma ([4]; 1 h): 94% | stability in plasma ([4]; 4 h): 88% | fraction unbound (in vitro [5]): < 0.001
Structure (SMILES): Cc1cc(NC(=O)Nc2ccc(N(C)C)cc2)c2cc(F)cc(F)c2n1 [SB-408124, 1-(6,8-difluoro-2-methyl-quinolin-4-yl)-3-(4-dimethylamino-phenyl)-urea]
brain-to-plasma ratio ([2]; calculated from Cmax values): 0.012 | Cmax ([2]; read-out: plasma Cmax): 84.3 µM | HCRTR1 occupancy (HCRTR1): 90% | Ki (rHCRTR1 [6]): 26.9 nM
